Measured values from patent US12551526B2, “Enterically delivered bitter oligopeptides for the treatment for type 2 diabetes” (Cedars-Sinai Medical Center, priority 2015, dated 2026).
Positions count from the first letter of the chain named. “Also recorded” adds a separate entry of the source. Read-outs that look alike come from different tables or passages of the source. Blank lines part the entries; values can stand above or below the compound they belong to.

Key:
HuTu-80 cells [1] = test: GLP-1 release from cultured HuTu-80 cells (Luminex assay); format: cell-based, human; details: for GLP-1 release: HuTu-80 cells treated 30 min, GLP-1 in conditioned media; for increase in GLP-1 over the basal release / GLP-1 release compared with TAS2R38 ligands PTC and PTU: HuTu-80 cells; for increase in GLP-1 over the basal release: 30 min, FIG. 9A; for GLP-1 release compared with TAS2R38 ligands PTC and PTU: FIG. 9B, PTC and PTU 10 mM
Method: HuTu-80 cells were untreated (zero-time) or treated with vehicle and various phytochemicals at indicated concentrations for 30 min. […] Values are mean±SE, N=3, *P<0.05, **P<0.01
HuTu-80 cells (HTB-40, ATCC) were propagated in Dulbecco's modified Eagle's medium (DMEM) containing 4 mM L-glutamine, 1.5 g/L sodium bicarbonate, and 4.5 g/L glucose, supplemented with 10% FBS and PSG antibiotic mix and maintained at 10% CO2 and 37° C. For experiments, these cells were seeded in 6-well plates or […] tissue culture dishes, propagated to confluence (5-7 days) and arrested in serum-free media overnight prior to treatments. Prior to the experiment, spent media was replaced with OPTI-MEM (Gibco, Life Technologies, Grand Island, NY) containing Halt Protease and Phosphatase Inhibitor cocktail (Thermo Fisher Scientific, Rockford, IL) and individual wells dosed for 30 min. […] The media from cells was collected and frozen for subsequent peptide hormone release measurement using a Luminex MAGPIX metabolism multiplexing assay kit (HMHMAG-34K) following the manufacturer's instructions.

HuTu-80 cells [2] = test: as above; format: cell-based, human; details: FIG. 3; printed as based on in vivo studies in mice
TAS2R38 = target: T1, TAS2R38 (Homo sapiens, UniProt P59533); test: GLP-1 release in HuTu-80 cells with TAS2R38 siRNA knockdown; format: cell-based; details: siTAS2R38 versus siCONTROL, 30 min
T1 construct: Cultured HuTu-80 cells were transfected with single and mixed oligonucleotide siRNAs for TAS2R38; host or cells: HuTu-80
T1 sequence (P59533 1-333): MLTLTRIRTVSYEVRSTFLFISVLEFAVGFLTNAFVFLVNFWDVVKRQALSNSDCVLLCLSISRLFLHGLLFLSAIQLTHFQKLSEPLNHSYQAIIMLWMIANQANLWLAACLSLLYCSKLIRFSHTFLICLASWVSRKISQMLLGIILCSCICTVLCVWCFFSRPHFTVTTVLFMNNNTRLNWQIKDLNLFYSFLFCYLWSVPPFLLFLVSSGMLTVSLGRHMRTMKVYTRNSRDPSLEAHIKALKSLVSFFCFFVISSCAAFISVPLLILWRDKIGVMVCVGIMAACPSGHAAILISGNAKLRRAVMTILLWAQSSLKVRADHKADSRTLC
Method: In order to determine the specific GPCR mediating the response of a particular ligand, we performed in vitro RNA silencing of TAS2R38. RNA silencing was performed using a commercial kit (FlexiTube siRNA, Qiagen) consisting of 4 predesigned oligonucleotides that specifically target each gene transcript. Each kit also had accompanying controls and quantifying assays for detection of gene knockdown. Cultured HuTu-80 cells were transfected with single and mixed oligonucleotide siRNAs for TAS2R38 using HiPerFect transfection reagent (Qiagen) or Lipofectamine 2000 (Life Tech) according to the procedure recommended by the manufacturer. Cells were maintained in the basal medium for up to 48 h. Gene knockdown was evaluated by RT-qPCR and Western blot by suitable antibody to ensure inhibition occurred. […] Dose-response curve of the ligand with and without siRNA treatment was generated.
FIGS. 6, 7, and 8 show the receptor expression and knockdown in HuTu-80 cells using a TAS2R38 receptor siRNA.
Conditioned media were collected and frozen until GLP-1 measurement. Values are mean±SD, N=3. GLP-1 is measured using Luminex assay.

GLP-1 release = test: In vivo GLP-1 release in mice after gastric gavage; details: PTU-cellulose 5 g/kg, PTU 200 mg/kg, FIG. 4B
Method: FIG. 4A Synthesis of PTU-cellulose.
Retro-orbital blood was obtained and GLP-1 was measured at regular intervals.
The molecules were administered by gastric gavage to pathogen-free, 6-to-8-week-old male BALB/c mice. […] The cellulose alone had no effect.

HuTu-80 cells [3] = details: previous studies; cited from earlier work
hTAS2R38AVI = target: T2, hTAS2R38AVI (Homo sapiens, UniProt P59533, A262V); details: non-taster haplotype; cited from earlier work
T2 sequence (P59533 1-333 A262V): T1 sequence (P59533 1-333) with A262V

hTAS2R38PAV = target: T3, hTAS2R38PAV (Homo sapiens, UniProt P59533); details: taster haplotype; cited from earlier work
T3 sequence (P59533 1-333): T1 sequence (P59533 1-333)

Compound: CN(C)C(=N)N=C(N)N [metformin]
GLP-1 release (HuTu-80 cells [1]): can activate GLP-1 release

Compound: CC1(C)CC[C@]2(C(=O)O)CC[C@]3(C)C(=CC[C@@H]4[C@@]5(C)CC[C@H](O)C(C)(C)[C@@H]5CC[C@]43C)[C@@H]2C1 [oleanolic acid]
increase in GLP-1 over the basal release (HuTu-80 cells [1]): significant increases

Compound: O=c1oc2c(O)c(O)cc3c(=O)oc4c(O)c(O)cc1c4c23 [ellagic acid]
increase in GLP-1 over the basal release (HuTu-80 cells [1]): significant increases

Compound: O=c1oc2cc(O)ccc2c2ccc(O)cc12 [urolithin A]
increase in GLP-1 over the basal release (HuTu-80 cells [1]): significant increases

Compound: YGLF [BPx1, bitter oligopeptide derived from milk-whey proteins]
potency rank among the four oligopeptides (HuTu-80 cells [2]): most potent
GLP-1 release when TAS2R38 expression is knocked down (TAS2R38): predominantly through TAS2R38; also recorded: decreased

Compound: CCCCCCCCCCCCCCCC(=O)O [palmitate, palmitic acid]
GLP-1 release (HuTu-80 cells [1]): GLP-1 secretory response was also observed
GLP-1 release compared with TAS2R38 ligands PTC and PTU (HuTu-80 cells [1]): stimulate GLP-1 release comparable to that by TAS2R38 ligands PTC and PTU

Compound: Ala-Ala-Ala-Ala (AAAA; printed: Ala-Ala-Ala-Ala) [PolyAla, scrambled PolyAla control peptide]
GLP-1 release (HuTu-80 cells [1]): in effective at causing GLP-1 release

GLP-1 release when TAS2R38 expression is knocked down (TAS2R38): right-shifted
Compound: CCCc1cc(=O)[nH]c(=S)[nH]1 [PTU, 6-n-propylthiouracil]
GLP-1 release (HuTu-80 cells [1]): caused GLP-1 release
GLP-1 release into the blood (GLP-1 release): caused GLP-1 release into the blood

Compound: YPFPGPIPN [BPx2, bitter oligopeptide derived from milk-whey proteins]
potency rank among the four oligopeptides (HuTu-80 cells [2]): most potent

Compound: NC(=S)Nc1ccccc1 [PTC, Phenylthiocarbamide]
GLP-1 release (HuTu-80 cells [3]): GLP-1 release
receptor response (hTAS2R38AVI): does not respond
receptor response (hTAS2R38PAV): strong response at μM concentrations

Compound: CCC(=O)O [propionate]
GLP-1 release (HuTu-80 cells [1]): GLP-1 secretory response was also observed
GLP-1 release compared with TAS2R38 ligands PTC and PTU (HuTu-80 cells [1]): stimulate GLP-1 release comparable to that by TAS2R38 ligands PTC and PTU
